The values that follow come from publication PMC7308271, “Discovery of a new class of orthosteric antagonists with nanomolar potency at extrasynaptic GABAA receptors” (Scientific Reports, 2020).

pIC50, pKd: −log10 of the molar value. Several values for one entry are separate records, joined by “and”; a condition that tells them apart may be missing. Equal entries are not always repeated. Where two headings read alike, the source gives them in different places.

What all share (type): cell-based
Experiment [1] deals with T1, human α5β2γ2 GABAΑ receptor (Homo sapiens, UniProt P31644+P47870).
T1 construct: expressed in transfected cells; host or cells: HEK background (HEK293 Flp-In stably expressing NPBWR2), transient α:β:γ 1:1:2
The experiment in a line: FMP assay at α5β2γ2 GABAA receptors in HEK cells. The protocol:
(§1) HEK293 cells were maintained in DMEM containing GlutaMAX-I, supplemented with 10% FBS and 1% penicillin-streptomycin and incubated at 37 °C and a humidity of 5% CO2. For expression of δ-containing GABAΑ receptors, a HEK293 Flp-In^ΤΜ cell line stably expressing the human GABAΑ δ-subunits (referred to as δ-HEK) was used and the γ-containing subtypes was expressed in a background HEK293 Flp-In^ΤΜ cell line stably expressing the G-protein coupled peptide receptor NPBWR2 (referred to as HEK background)[26], both positively selected for using 200 μg/mL hygromycin B. α1β2γ2 receptors were stably expressed in a HEK293 cell line maintained as above but with no selection (gift from Marianne L. Jensen, Neurosearch).
(§2) To express recombinant GABAΑ receptors human α1, α2, α3, α5, α6, β2, γ2 (pcDNA3.1/Zeo) and α4, β1 (pUNIV)[26] subunit cDNA were transiently transfected into either δ-HEK or HEK background cells. δ-HEK cells were transfected with α- and β-subunits in a 1:1 ration whereas HEK background cells were transfected with α-, β- and γ-subunits in a 1:1:2 ratio. Human BGT1 (pcDNA5/FRT)[43] was transiently transfected into the δ-HEK cell line. δ-HEK cells transfected for whole-cell patch-clamp recordings were co-transfected with green fluorescent protein (GFP) as well as α- and β-subunits in a 0.5:1:1 ratio (0.8 μg + 1.6 μg + 1.6 μg in a 6 cm dish) in order to identify transfected cells. The transfection was carried out using Polyfect as transfection reagent according to the manufactures protocol expect for using half the recommended volume of Polyfect.
(§3) The FMP assay was performed as previously described with a few modifications. […] Data was obtained as changes in fluorescence units (∆RFU) by measuring emission at 560 nm caused by excitation at 530 nm. […]
(§4) Data obtained in the FMP assay are given as relative changes in fluorescence units (ΔRFU) by subtracting the average of the baseline fluorescence signal from the peak fluorescence signal after compound addition. […]

The target of experiment [2] is T2, human α4β1δ GABAΑ receptor (Homo sapiens, UniProt P18505+P48169).
T2 construct: expressed in transfected cells; host or cells: δ-HEK (HEK293 Flp-In stably expressing human δ), transiently transfected with α4 and β1 1:1
The experiment in a line: FMP assay at α4β1δ GABAA receptors in HEK cells (screening, concentration-inhibition, Schild analysis). Particulars: for pIC50: vs GABA EC80 0.27–1.0 μM, mean.
From the text: We have previously established a FLIPR membrane potential (FMP) assay to study recombinant δ-containing GABAΑRs entailing a HEK293 Flp-In cell line stably expressing the human δ-subunit which is suitable for co-transfection with any desired α/β subunits. Initially, we validated the applicability of the FMP assay for efficient compound screening in 96-well microtiter plates using the human α4β1δ GABAΑR heterologously expressed in HEK cells. This receptor was chosen as we have previously shown this system to be reliable in expressing δ-containing receptors. To this end, we determined the Z′-factor, which is a statistical factor used to measure the suitability of an assay for high throughput screening.
Thus, we went on to further characterize 2027 by making a full concentration-inhibition curve.
as §1, §2
(§5) The FMP assay was performed as previously described with a few modifications. Briefly, HEK cells were transfected as described[26] and 16–20 hours later plated (50,000 cells/well in DMEM medium) into clear-bottomed black 96-well plates coated with poly-D-lysine and the assay performed 20–28 hours later. The assay protocol including the FMP blue dye incorporation into membranes was exactly as described in Falk-Petersen et al.[26]. […] Data was obtained as changes in fluorescence units (∆RFU) by measuring emission at 560 nm caused by excitation at 530 nm. Unless otherwise mentioned in the text or figure legends experiments were performed in at least three independent experiments each using three technical replicates.
Data obtained in the FMP assay are given as relative changes in fluorescence units (ΔRFU) by subtracting the average of the baseline fluorescence signal from the peak fluorescence signal after compound addition. All raw traces were inspected manually and peak signals resulting from compound/buffer addition together with signal artefacts were omitted from the analysis.
The concentration-response curves obtained in the FMP assay for both agonists (determining EC50 values) and antagonists (determining IC50 values) were fitted using the four-parameter concentration-response model: Response=bottom+top−bottom/1+10^[(logEC50-A)⋅nH] EC/IC50 values describe the concentration resulting in the half-maximal response (halfway between top and bottom), and nΗ is the Hill coefficient.

Experiment [3] has as its target T3, human α4β2δ GABAΑ receptor (Homo sapiens, UniProt P47870+P48169).
T3 construct: expressed in transfected cells; host or cells: δ-HEK (HEK293 Flp-In stably expressing human δ), transiently transfected with α and β 1:1
The experiment in a line: FMP assay at α4β2δ GABAA receptors in HEK cells. The protocol: as §1, §2
as §5, with “replicates. Due to an observed edge effect for the FMP assay, outer wells were not used except for the screening.” for “replicates.”
Data obtained in the FMP assay are given as relative changes in fluorescence units (ΔRFU) by subtracting the average of the baseline fluorescence signal from the peak fluorescence signal after compound addition. All raw traces were inspected manually and peak signals resulting from compound/buffer addition together with signal artefacts were omitted from the analysis. […]

For experiment [4], the target named is T4, human α4β1γ2 GABAΑ receptor (Homo sapiens, UniProt P18505+P48169).
T4 construct: expressed in transfected cells; host or cells: HEK background (HEK293 Flp-In stably expressing NPBWR2), transient α:β:γ 1:1:2
The experiment in a line: FMP assay at α4β1γ2 GABAA receptors in HEK cells. On the procedure: as §1, §2, §3, §4

The term pIC50 denotes the negative decadic logarithm of the IC50, by convention in mol/L. The term inhibition denotes the drop in the measured response relative to a control, in per cent.

T1 sequence (P31644 32-462): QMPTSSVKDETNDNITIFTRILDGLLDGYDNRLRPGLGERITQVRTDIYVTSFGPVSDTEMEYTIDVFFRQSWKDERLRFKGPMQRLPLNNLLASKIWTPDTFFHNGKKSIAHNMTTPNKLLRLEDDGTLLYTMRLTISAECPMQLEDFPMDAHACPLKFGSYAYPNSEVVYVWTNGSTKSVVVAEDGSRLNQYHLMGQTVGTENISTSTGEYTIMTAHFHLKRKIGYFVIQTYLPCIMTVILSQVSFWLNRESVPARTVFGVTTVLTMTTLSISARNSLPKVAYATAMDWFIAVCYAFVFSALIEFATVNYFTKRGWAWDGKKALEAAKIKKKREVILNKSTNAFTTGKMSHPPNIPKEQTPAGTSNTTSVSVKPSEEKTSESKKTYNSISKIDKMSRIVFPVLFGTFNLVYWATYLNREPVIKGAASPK
T1 sequence (P47870 25-512 limits assumed): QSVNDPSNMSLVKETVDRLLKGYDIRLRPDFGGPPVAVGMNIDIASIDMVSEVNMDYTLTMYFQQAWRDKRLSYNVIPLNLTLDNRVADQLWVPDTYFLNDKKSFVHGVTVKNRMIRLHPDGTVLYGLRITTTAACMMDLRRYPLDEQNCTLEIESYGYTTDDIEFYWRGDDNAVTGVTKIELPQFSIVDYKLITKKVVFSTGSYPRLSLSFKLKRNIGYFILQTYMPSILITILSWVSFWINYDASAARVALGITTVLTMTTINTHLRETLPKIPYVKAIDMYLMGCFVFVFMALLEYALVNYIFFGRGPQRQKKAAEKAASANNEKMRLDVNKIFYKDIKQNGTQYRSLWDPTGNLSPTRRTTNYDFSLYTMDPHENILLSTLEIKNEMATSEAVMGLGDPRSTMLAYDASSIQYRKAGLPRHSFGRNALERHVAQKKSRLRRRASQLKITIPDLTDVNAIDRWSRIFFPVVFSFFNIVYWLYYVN
T1 sequence (P18507 40-475 partner): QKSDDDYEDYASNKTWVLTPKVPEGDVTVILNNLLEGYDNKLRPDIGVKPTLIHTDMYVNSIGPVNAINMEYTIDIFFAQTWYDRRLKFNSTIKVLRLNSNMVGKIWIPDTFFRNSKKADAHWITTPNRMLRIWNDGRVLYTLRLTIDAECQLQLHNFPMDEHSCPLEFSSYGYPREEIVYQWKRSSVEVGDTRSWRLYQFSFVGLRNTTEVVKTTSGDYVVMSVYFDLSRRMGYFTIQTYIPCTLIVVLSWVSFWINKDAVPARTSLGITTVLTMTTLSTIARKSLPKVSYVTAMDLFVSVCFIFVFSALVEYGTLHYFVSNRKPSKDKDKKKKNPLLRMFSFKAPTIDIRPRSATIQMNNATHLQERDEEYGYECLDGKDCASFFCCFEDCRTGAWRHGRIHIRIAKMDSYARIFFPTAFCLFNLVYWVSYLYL
T2 sequence (P48169 36-554): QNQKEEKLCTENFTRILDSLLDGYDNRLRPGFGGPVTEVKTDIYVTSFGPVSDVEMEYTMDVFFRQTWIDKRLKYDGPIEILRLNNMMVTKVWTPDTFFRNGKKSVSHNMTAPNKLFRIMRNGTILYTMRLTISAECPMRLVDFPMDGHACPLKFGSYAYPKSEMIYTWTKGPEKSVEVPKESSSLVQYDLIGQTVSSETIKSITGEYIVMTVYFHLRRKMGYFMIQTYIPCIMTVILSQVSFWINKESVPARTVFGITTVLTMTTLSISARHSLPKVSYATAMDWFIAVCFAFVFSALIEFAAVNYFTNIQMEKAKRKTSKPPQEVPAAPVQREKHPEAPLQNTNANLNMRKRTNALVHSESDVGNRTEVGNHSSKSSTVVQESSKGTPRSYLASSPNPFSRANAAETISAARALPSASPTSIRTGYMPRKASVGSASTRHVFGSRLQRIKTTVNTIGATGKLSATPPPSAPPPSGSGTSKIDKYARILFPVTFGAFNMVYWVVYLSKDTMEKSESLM
T2 sequence (P18505 26-474): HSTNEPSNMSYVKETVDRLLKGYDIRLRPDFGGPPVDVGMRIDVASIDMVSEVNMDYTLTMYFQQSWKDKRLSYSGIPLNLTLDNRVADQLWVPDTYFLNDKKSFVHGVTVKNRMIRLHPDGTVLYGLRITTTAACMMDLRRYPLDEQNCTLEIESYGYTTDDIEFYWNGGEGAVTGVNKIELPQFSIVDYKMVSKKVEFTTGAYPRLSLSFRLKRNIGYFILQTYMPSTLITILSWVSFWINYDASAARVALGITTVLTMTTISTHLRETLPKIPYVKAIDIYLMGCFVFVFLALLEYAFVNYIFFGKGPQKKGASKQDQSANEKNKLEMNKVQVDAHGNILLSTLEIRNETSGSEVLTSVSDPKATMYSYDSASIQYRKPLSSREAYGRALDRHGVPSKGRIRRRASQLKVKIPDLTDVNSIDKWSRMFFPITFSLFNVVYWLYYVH
T2 sequence (O14764 25-452 partner): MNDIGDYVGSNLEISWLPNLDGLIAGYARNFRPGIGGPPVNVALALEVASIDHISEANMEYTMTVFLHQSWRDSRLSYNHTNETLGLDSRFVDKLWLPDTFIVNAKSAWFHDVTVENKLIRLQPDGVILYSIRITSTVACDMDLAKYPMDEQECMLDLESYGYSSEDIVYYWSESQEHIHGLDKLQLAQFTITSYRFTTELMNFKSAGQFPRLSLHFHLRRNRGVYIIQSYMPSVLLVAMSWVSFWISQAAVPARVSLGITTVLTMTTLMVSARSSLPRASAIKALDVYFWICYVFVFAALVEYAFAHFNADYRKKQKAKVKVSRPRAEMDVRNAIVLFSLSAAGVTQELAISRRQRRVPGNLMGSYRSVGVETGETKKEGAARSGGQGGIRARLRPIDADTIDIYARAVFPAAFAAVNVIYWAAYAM
T3 sequence (P48169 36-554): as the sequence (P48169 36-554) above
T3 sequence (P47870 25-512 limits assumed): as the sequence (P47870 25-512 limits assumed) above
T3 sequence (O14764 25-452 partner): as the sequence (O14764 25-452 partner) above
T4 sequence (P48169 36-554): as the sequence (P48169 36-554) above
T4 sequence (P18505 26-474): as the sequence (P18505 26-474) above
T4 sequence (P18507 40-475 partner): as the sequence (P18507 40-475 partner) above

`NCCCC(=O)O` [GABA]: the “GABA EC80” value is 3.0 µM in experiment [1] (α5β2γ2, calculated from GABA potencies); 0.27 to 1.0 µM in experiment [2] (calculated from GABA potencies); 0.80 to 1.0 µM in experiment [3] (α4β2δ, calculated from GABA potencies); 4.0 to 8.0 µM in experiment [4] (α4β1γ2, calculated from GABA potencies).
As for `O=C(Nc1cccc(C(=O)N2CCC3(CCNCC3)CC2)c1)c1cccs1` [compound 018, N-(3-(3,9-diazaspiro[5.5]undecane-3-carbonyl)phenyl)thiophene-2-carboxamide], the pIC50 in experiment [1] is 7.29; in experiment [2], 7.05 and 7.06; in experiment [3] (read-out: IC50), 7.17; in experiment [4], 7.43. In experiment [2] (Gaddum/Schild analysis, read-out: KΒ from Schild analysis), the pKd was 7.72. In addition, the “potency of 018 relative to 2027” value in experiment [2] (IC50 ratio) was “approximately 10 times”. The “increased potency at α4β2δ compared to α1β2γ2” value in experiment [3] (IC50 68 nM vs 790 nM) came out at 12 times.
For `CC(=O)Nc1cccc(C(=O)N2CCC3(CCNCC3)CC2)c1` [compound 2027, N-(3-(3,9-diazaspiro[5.5]undecane-3-carbonyl)phenyl)acetamide], the negative-log IC50 (pIC50) in experiment [1] was 6.23; in experiment [2], 5.99; in experiment [4], 6.78. Besides, the “hit validation, antagonistic effect” value in experiment [2] (100, 50 and 10 μM in triplicates) is on record as “showed antagonistic effect”. The inhibition at 10 µM in experiment [2] (HEK293, read-out: inhibition of the GABA EC80 signal, primary screening, 10 μM, singlicates) is greater than 50%. The IC50 in experiment [3] (read-out: pIC50 ± SEM (converted)) is 0.363 µM.
